Results as given in ChEMBL document CHEMBL1201862, “PubChem BioAssay data set” (2004).
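Five compound concentrations were applied to cells in 96-well plates for 48 hours; endpoints were derived by simple linear interpolation of the resulting dose-response curve. The concentration for 50% growth inhibition is given as GI50.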 The source made the active and inactive calls. Rule as the data show it: active = GI50 up to about 1.1 µM and inactive = higher.

How the values were obtained:
Experiment in all cases: NCI anticancer screen, dose series, 48 h
[1] = system: ACHN
[2] = system: CAKI-1
[3] = system: COLO 205
[4] = system: HCC 2998
[5] = system: HOP-92
[6] = system: HT-29
[7] = system: LOX IMVI
[8] = system: MCF7
[9] = system: MOLT-4
[10] = system: NCI-H23
[11] = system: PC-3
[12] = system: RXF 393
[13] = system: SF-268
[14] = system: SK-MEL-28
[15] = system: SK-OV-3
[16] = system: SN12C
[17] = system: TK-10
[18] = system: U-251
[19] = system: UACC-257
[20] = system: UACC-62

SMILES | GI50 [1] | GI50 [2] | GI50 [3] | GI50 [4] | GI50 [5] | GI50 [6] | GI50 [7] | GI50 [8] | GI50 [9] | GI50 [10] | GI50 [11] | GI50 [12] | GI50 [13] | GI50 [14] | GI50 [15] | GI50 [16] | GI50 [17] | GI50 [18] | GI50 [19] | GI50 [20]
OC1=C2c3ccccc3NC2Oc2cc(F)ccc21 (stereo not given) | 18.7 µM (inactive) | 19.5 µM (inactive) | 14.5 µM (inactive) | 17.9 µM (inactive) | 18 µM (inactive) | 19.8 µM (inactive) | 16.4 µM (inactive) | 24.9 µM (inactive) | 13.6 µM (inactive) | 12.9 µM (inactive) | 18.8 µM (inactive) | 16.6 µM (inactive) | 18.2 µM (inactive) | 30.1 µM (inactive) | 12.7 µM (inactive) | 12.7 µM (inactive) | 25.1 µM (inactive) | 15.7 µM (inactive) | 19 µM (inactive) | 15.7 µM (inactive)
C[C@@H]1CCC[C@]2(C)O[C@H]2CC[C@@](C)(O)[C@@H]2CC3=C(CO)C(=O)O[C@H]3[C@H]1O2 | > 50 µM (inactive) | > 50 µM (inactive) | > 50 µM (inactive) | > 50 µM (inactive) | > 50 µM (inactive) | > 50 µM (inactive) | > 50 µM (inactive) | > 50 µM (inactive) | > 50 µM (inactive) | > 50 µM (inactive) | > 50 µM (inactive) | > 50 µM (inactive) | > 50 µM (inactive) | > 50 µM (inactive) | > 50 µM (inactive) | > 50 µM (inactive) | > 50 µM (inactive) | > 50 µM (inactive) | > 50 µM (inactive) | > 50 µM (inactive)
CCOC(=O)C1=C(C)N(Cc2ccccc2)C2(O)C=CC(O)=C3C(=O)c4ccccc4C(=O)C312 (stereo not given) | 17.4 µM (inactive) | 12.1 µM (inactive) | 16.8 µM (inactive) | 17 µM (inactive) | 17.2 µM (inactive) | 31.5 µM (inactive) | 14.1 µM (inactive) | 0.128 µM (active) | 8.15 µM (inactive) | 8.61 µM (inactive) | 19.2 µM (inactive) | 3.37 µM (inactive) | 10.1 µM (inactive) | 28.6 µM (inactive) | 29.6 µM (inactive) | 13.5 µM (inactive) | 18.5 µM (inactive) | 16.6 µM (inactive) | 17.2 µM (inactive) | 14.7 µM (inactive)
CN1CCC(O)(OC(=O)C(c2ccccc2)C2(O)CCCC2)CC1 (stereo not given) | > 100 µM (inactive) | > 100 µM (inactive) | > 100 µM (inactive) | > 100 µM (inactive) | > 100 µM (inactive) | > 100 µM (inactive) | > 100 µM (inactive) | > 100 µM (inactive) | > 100 µM (inactive) | > 100 µM (inactive) | > 100 µM (inactive) | > 100 µM (inactive) | > 100 µM (inactive) | > 100 µM (inactive) | > 100 µM (inactive) | > 100 µM (inactive) | > 100 µM (inactive) | > 100 µM (inactive) | > 100 µM (inactive) | > 100 µM (inactive)
NC(Cc1ccccc1)C(=O)O (stereo not drawn) [DL-PHENYLALANINE] | > 100 µM (inactive) | > 100 µM (inactive) | > 100 µM (inactive) | > 100 µM (inactive) | > 100 µM (inactive) | > 100 µM (inactive) | > 100 µM (inactive) | > 100 µM (inactive) | > 100 µM (inactive) | > 100 µM (inactive) | > 100 µM (inactive) | > 100 µM (inactive) | > 100 µM (inactive) | > 100 µM (inactive) | > 100 µM (inactive) | > 100 µM (inactive) | > 100 µM (inactive) | > 100 µM (inactive) | > 100 µM (inactive) | > 100 µM (inactive)
Nc1nc2[nH]cc(CCc3ccc(C(=O)N[C@@H](CCC(=O)O)C(=O)O)cc3)c2c(=O)[nH]1 [PEMETREXED] | 0.0255 µM (active) | > 100 µM (inactive) | > 100 µM (inactive) | < 0.01 µM (active) | > 100 µM (inactive) | > 100 µM (inactive) | 0.0743 µM (active) | < 0.0147 µM (active) | 0.0695 µM (active) | > 100 µM (inactive) | > 100 µM (inactive) | > 100 µM (inactive) | 0.387 µM (active) | > 100 µM (inactive) | > 100 µM (inactive) | > 100 µM (inactive) | > 100 µM (inactive) | > 100 µM (inactive) | > 100 µM (inactive) | 0.23 µM (active)
